Test results taken from patent publication US20150119698A1, “Compositions Comprising Near-Infrared Fluorescent Particles And Uses Thereof For Imaging Activated Immune Cells In the CNS” (priority 2012, published 2015).

Experiments:
[1] = system: brains of mice 6 days post infection with P. berghei ANKA versus naïve mice; details: mouse, in vivo
Description: In an additional experiment, C57 black mice were infected with 80,000 parasites (P. berghei ANKA). […] Mice were scanned by IVIS™ optical imager. The measurements were performed for 5 hours. For each mouse, the intensity of brain ICG emission was compared to that of the foot. […] Five hours post injection mice were sacrificed and brains were scanned by TYPHOON™ imager.

[2] = system: brain of mice following infection with Plasmodium berghei ANKA or naïve mice; experiment: Probe distribution into the CNS in experimental cerebral malaria, images 4 hours post injection; assay type: in vivo; details: tail vein injection

## CC1(C)C(/C=C/C=C/C=C/C=C2\N(CCCCS(=O)(=O)O)c3ccc4ccccc4c3C2(C)C)=[N+](CCCCS(=O)(=O)[O-])c2ccc3ccccc3c21 [free ICG, Indocyanine green]
[1]
  brain emission, infected versus naïve mice (statistical difference): not statistically different
[2]; mice infected with Plasmodium berghei ANKA
  uptake into the brain of diseased mice: but not free ICG, were preferentially uptaken into the brain
[2]; naïve mice
  fluorescence in the brain of naïve mice: no significant fluorescence
